According to EP0157753B1, “New somatostatin compounds, process for their synthesis, preparation for veterinary use containing said compound and process for the treatment of animals” (TECHLAND, Société Anonyme, priority 1984, dated 1987):

Test: Treatment of young bulls with GPP: live weight gain and food intake over 7 months
Format: in vivo
Conditions: batch 5 (SRIF, MTP treated) versus batch 3 (SRIF, MDP treated); low, without any statistical significance
Protocol: They were injected four times with 100 µg of GPP or a mixture of equivalent amounts of muramyl di-or triptide and SRIF. Samples were solubilized in physiological medium supplemented with 40 % WN polyethyleneglycol 6000. Intramuscular injections in the neck of animals were performed with 3 ml of the solution at days 0, 10, 30 and 60 of the 7 months period. During the seventh months treatment period the animals received a concentrate ad libitum. Each month, the animals were weighed and blood samples were taken for further analyses. The results concerning the parameters studied in this zootechnical experiment were summarized in the following.
Variance analysis of the body live weight gain has been performed on 27 animals alive on September 27, 1984 (16 controls and 11 treated animals). At that time, the difference of life weight gain between the 16 control animals and the 11 treated animals was 31.3 kg per animal, i. e. 11 % over controls.

For “SRIF, MTP: Coupling of a muramyl tripeptide analog (N-acetyl muramyl-L-Ala-D-isoglutamyl-L-lysine OMe) with somatostatine (SRIF)”, the “deviation between the life gain of treated animals of batch 5 and batch 3” value was 5.7 kg.
